In patent US20160030409A1, “METHOD FOR RELIEVING CHRONIC PAIN” (priority 2014, published 2016):

Tested on: chronic non-malignant pain due to fibromyalgia and osteoarthritis
Assay: Trial experiment: Naropin injected into tender points of a patient with chronic non-malignant pain
Type: in vivo
Protocol: The patient was treated with the anesthetic Naropin® (generically known as ropivacaine), by injecting 0.5 cc of the anesthetic, by needle, into most tender points above and below the knees. Naropin was administered at a concentration of 5 mg/ml.
Subsequently, after sufficient time had elapsed for the previously injected Naropin to leave the patient's body, 0.5 cc of Naropin was once again administered, at a concentration of 5 mg/ml, using the Medical International Technology, Inc. (MIT) Med-Jet® H™ needleless, pressure-based injector. The injector was set at a pressure of 150 psig. For knee pain, most tender points, approximately five to eight, above and below the knees were injected. For hip pain, most tender points, approximately five, above the trochanteric bursa were injected. For back pain, most tender points, approximately ten on each side of the back, around the sacroiliac joints were injected. A single injection was administered for each tender point selected for injection. The administration of the local anesthetic by needleless injection left painful welts at each injection site, which took approximately two to three weeks to disappear.

Question: Which “tenderness of tender points after the welts had disappeared” value (0.5 cc at 5 mg/ml by Med-Jet H needleless pressure-based injector at 150 psig) does the source give for CCCN1CCCC[C@H]1C(=O)Nc1c(C)cccc1C [Naropin, ropivacaine] here?
Answer: no longer tender

Question: And the “pain after the welts had disappeared” value (0.5 cc at 5 mg/ml by Med-Jet H needleless pressure-based injector at 150 psig, tender points of knees, hip, back)?
Answer: pain was diminished

Question: And the pain relief (0.5 cc at 5 mg/ml injected by needle into most tender points above and below the knees, middle-aged patient)?
Answer: No pain relief

Question: What about the “time for welts to disappear” value (needleless injection, 150 psig) of the same molecule?
Answer: two to three

Question: And the injection site reaction (needleless injection, 150 psig, each injection site)?
Answer: painful welts
